Data set [1] concerns Botrytis cinerea. Put plainly: Test A: preventive spray on tomato seedlings, Botrytis cinerea (tomato Botrytis), visual disease rating. Format: in vivo. Particulars: 100 = 100% disease control, 0 = no disease control relative to controls. The text has this:
(§1) General protocol for preparing test suspensions for Tests A-H: the test compounds were first dissolved in acetone in an amount equal to 3% of the final volume and then suspended at the desired concentration (in ppm) in acetone and purified water (50/50 mix by volume) containing 250 ppm of the surfactant Trem® 014 (polyhydric alcohol esters). The resulting test suspensions were then used in Tests A-F. Spraying a 40 ppm test suspension to the point of run-off on the test plants was the equivalent of a rate of 160 g/ha. Unless otherwise indicated, the rating values indicate a 40 ppm test suspension was used. The test suspension was sprayed to the point of run-off on tomato seedlings. The following day the seedlings were inoculated with a spore suspension of Botrytis cinerea (the causal agent of tomato Botrytis) and incubated in saturated atmosphere at 20° C. for 48 h, and then moved to a growth chamber at 27° C. for 3 days, after which time visual disease ratings were made. Results for Tests A-F are given in Table A. In the Table, a rating of 100 indicates 100% disease control and a rating of 0 indicates no disease control (relative to the controls). A dash (-) indicates no test results.

Data set [2] has as its system Blumeria graminis f. sp. tritici. Put plainly: Test F: preventive spray on wheat seedlings, Blumeria graminis f. sp. tritici (wheat powdery mildew), visual disease rating. Format: in vivo. Conditions: topical, 192 h, 100 = 100% disease control, 0 = no disease control relative to controls.
Description: as §1, with “on wheat” for “on tomato”, “spore dust” for “spore suspension”, “of Blumeria graminis f. sp. tritici (also known as Erysiphe graminis f. sp. tritici, the” for “of Botrytis cinerea (the”, “of wheat powdery mildew)” for “of tomato Botrytis)”, “in a growth chamber” for “in saturated atmosphere”, “for 8” for “for 48 h, and then moved to a growth chamber at 27° C. for 3”

Data set [3] has as its system Septoria nodorum. Briefly: Test C: preventive spray on wheat seedlings, Septoria nodorum (Septoria glume blotch), visual disease rating. Type of data set: in vivo. Conditions: Parastagonospora nodorum, topical, 264 h, 100 = 100% disease control, 0 = no disease control relative to controls. The text has this: General protocol for preparing test suspensions for Tests A-H: the test compounds were first dissolved in acetone in an amount equal to 3% of the final volume and then suspended at the desired concentration (in ppm) in acetone and purified water (50/50 mix by volume) containing 250 ppm of the surfactant Trem® 014 (polyhydric alcohol esters). The resulting test suspensions were then used in Tests A-F. Spraying a 40 ppm test suspension to the point of run-off on the test plants was the equivalent of a rate of 160 g/ha. Unless otherwise indicated, the rating values indicate a 40 ppm test suspension was used. The test suspension was sprayed to the point of run-off on wheat seedlings. The following day the seedlings were inoculated with a spore suspension of Septoria nodorum (the causal agent of Septoria glume blotch) and incubated in a saturated atmosphere at 20° C. for 48 h, and then moved to a growth chamber at 20° C. for 9 days, after which time visual disease ratings were made. Results for Tests A-F are given in Table A. In the Table, a rating of 100 indicates 100% disease control and a rating of 0 indicates no disease control (relative to the controls). A dash (-) indicates no test results.

In data set [4] the test system is Septoria tritici. Briefly: Test D: preventive spray on wheat seedlings, Septoria tritici (wheat leaf blotch), visual disease rating. Conditions: Zymoseptoria tritici, topical, 504 h, 100 = 100% disease control, 0 = no disease control relative to controls. Type of data set: in vivo. The text has this:
General protocol for preparing test suspensions for Tests A-H: the test compounds were first dissolved in acetone in an amount equal to 3% of the final volume and then suspended at the desired concentration (in ppm) in acetone and purified water (50/50 mix by volume) containing 250 ppm of the surfactant Trem® 014 (polyhydric alcohol esters). The resulting test suspensions were then used in Tests A-F. Spraying a 40 ppm test suspension to the point of run-off on the test plants was the equivalent of a rate of 160 g/ha. Unless otherwise indicated, the rating values indicate a 40 ppm test suspension was used. The test suspension was sprayed to the point of run-off on wheat seedlings. The following day the seedlings were inoculated with a spore suspension of Septoria tritici (the causal agent of wheat leaf blotch) and incubated in saturated atmosphere at 24° C. for 48 h, and then moved to a growth chamber at 20° C. for 19 days, after which time visual disease ratings were made. Results for Tests A-F are given in Table A. In the Table, a rating of 100 indicates 100% disease control and a rating of 0 indicates no disease control (relative to the controls). A dash (-) indicates no test results.

Data set [5] deals with Puccinia recondita f. sp. tritici. Put plainly: Test E2: preventive spray on wheat seedlings, Puccinia recondita f. sp. tritici (wheat leaf rust), visual disease rating. Format: in vivo. Particulars: topical, 192 h, 100 = 100% disease control, 0 = no disease control relative to controls. The text has this: General protocol for preparing test suspensions for Tests A-H: the test compounds were first dissolved in acetone in an amount equal to 3% of the final volume and then suspended at the desired concentration (in ppm) in acetone and purified water (50/50 mix by volume) containing 250 ppm of the surfactant Trem® 014 (polyhydric alcohol esters). The resulting test suspensions were then used in Tests A-F. Spraying a 40 ppm test suspension to the point of run-off on the test plants was the equivalent of a rate of 160 g/ha. Unless otherwise indicated, the rating values indicate a 40 ppm test suspension was used. The test suspension was sprayed to the point of run-off on wheat seedlings. The following day the seedlings were inoculated with a spore suspension of Puccinia recondita f. sp. tritici (the causal agent of wheat leaf rust) and incubated in a saturated atmosphere at 20° C. for 24 h, and then moved to a growth chamber at 20° C. for 7 days, after which time visual disease ratings were made. Results for Tests A-F are given in Table A. In the Table, a rating of 100 indicates 100% disease control and a rating of 0 indicates no disease control (relative to the controls). A dash (-) indicates no test results.

As usually defined, the pest or weed control is the degree to which the test organism was suppressed or injured, in per cent. Lower therefore signals a weak effect. One may read the melting point as the temperature, or range, at which the solid turns liquid.

In the case of `Cc1cc(F)c(Nc2c(-c3ccc(F)cc3Br)c(C)nn2C)c(Br)c1` [Compound 7, N-(2-bromo-6-fluoro-4-methylphenyl)-4-(2-bromo-4-fluorophenyl)-1,3-dimethyl-1H-pyrazol-5-amine], the melting point is 143 to 145 °C. Also, in data set [1], the pest or weed control at 40 µg/mL turned out to be 100%. The compound also had a pest or weed control at 40 µg/mL in data set [2] of 100%. The pest or weed control at 40 µg/mL in data set [3] is 99%. Also, the pest or weed control at 40 µg/mL in data set [4] worked out at 100%. The compound further gave a pest or weed control at 40 µg/mL in data set [5] of 100%.

Compound `Cc1cc(F)c(Nc2c(-c3ccc(F)cc3Br)c(C)nn2C)c(Cl)c1` [Compound 11, 4-(2-bromo-4-fluorophenyl)-N-(2-chloro-6-fluoro-4-methylphenyl)-1,3-dimethyl-1H-pyrazol-5-amine] registered a melting point of 145 to 146 °C.

On to `Cc1ccc(Nc2c(-c3ccc(F)cc3Br)c(C)nn2C)c(Br)c1` [Compound 5, 4-(2-bromo-4-fluorophenyl)-N-(2-bromo-4-methylphenyl)-1,3-dimethyl-1H-pyrazol-5-amine], for which the pest or weed control at 40 µg/mL turned out to be 99% in data set [1]; 97% in data set [2]; 0% in data set [3]; 100% in data set [4]; 97% in data set [5].

`Cc1cc(F)c(Nc2c(-c3ccc(F)cc3F)c(C)nn2C)c(F)c1` [Compound 9, N-(2,6-difluoro-4-methylphenyl)-4-(2,4-difluorophenyl)-1,3-dimethyl-1H-pyrazol-5-amine] displayed a melting point of 156 to 158 °C. For the same compound, the pest or weed control at 40 µg/mL in data set [1] stood at 100%. Further, the pest or weed control at 40 µg/mL in data set [2] was 100%. The pest or weed control at 40 µg/mL in data set [3] is 96%. In data set [4], this compound yielded a pest or weed control at 40 µg/mL of 100%. The pest or weed control at 40 µg/mL in data set [5] amounted to 96%.

With `Cc1cc(Cl)c(Nc2c(-c3ccc(F)cc3F)c(C)nn2C)c(Cl)c1` [Compound 16, N-(2,6-dichloro-4-methylphenyl)-4-(2,4-difluorophenyl)-1,3-dimethyl-1H-pyrazol-5-amine], the melting point was 147 to 149 °C. In data set [1], the pest or weed control at 40 µg/mL was 100%. The compound also gave a pest or weed control at 40 µg/mL in data set [2] of 99%. Further, the pest or weed control at 40 µg/mL in data set [3] was 97%. In data set [4], this compound showed a pest or weed control at 40 µg/mL of 73%. Also, in data set [5], the pest or weed control at 40 µg/mL was 100%.

In the case of `Cc1ccc(Nc2c(-c3ccc(F)cc3Cl)c(C)nn2C)c(F)c1` [Compound 6, 4-(2-chloro-4-fluorophenyl)-N-(2-fluoro-4-methylphenyl)-1,3-dimethyl-1H-pyrazol-5-amine], the pest or weed control at 40 µg/mL turned out to be 99% in data set [1]; 100% in data set [2]; 0% in data set [3]; 100% in data set [4]; 0% in data set [5].

Compound `Cc1cc(F)c(Nc2c(-c3ccc(F)cc3Cl)c(C)nn2C)c(F)c1` [Compound 10, 4-(2-chloro-4-fluorophenyl)-N-(2,6-difluoro-4-methylphenyl)-1,3-dimethyl-1H-pyrazol-5-amine] returned a melting point of 121 to 123 °C. In addition, the pest or weed control at 40 µg/mL in data set [1] was 100%. The compound also returned a pest or weed control at 40 µg/mL in data set [2] of 100%. The same compound registered a pest or weed control at 40 µg/mL in data set [3] of 90%. In addition, the pest or weed control at 40 µg/mL in data set [4] stood at 100%. Moreover, the pest or weed control at 40 µg/mL in data set [5] was determined as 100%.

Turning to `Cc1ccc(Nc2c(-c3ccc(F)cc3Cl)c(C)nn2C)c(Br)c1` [Compound 3, N-(2-bromo-4-methylphenyl)-4-(2-chloro-4-fluorophenyl)-1,3-dimethyl-1H-pyrazol-5-amine], the pest or weed control at 40 µg/mL in data set [1] amounted to 99%; in data set [2], 96%; in data set [3], 0%; in data set [4], 100%; in data set [5] it was 99%.

Consider `Cc1cc(F)c(Nc2c(-c3ccc(F)cc3Cl)c(C)nn2C)c(Cl)c1` [Compound 12, N-(2-chloro-6-fluoro-4-methylphenyl)-4-(2-chloro-4-fluorophenyl)-1,3-dimethyl-1H-pyrazol-5-amine], for which the melting point was in the range of 137 to 138 °C.

`Cc1cc(F)c(Nc2c(-c3ccc(F)cc3F)c(C)nn2C)c(Br)c1` [Compound 8, N-(2-bromo-6-fluoro-4-methylphenyl)-4-(2,4-difluorophenyl)-1,3-dimethyl-1H-pyrazol-5-amine] had a melting point of 143 to 144 °C. For the same compound, the pest or weed control at 40 µg/mL in data set [1] worked out at 100%. The compound further showed a pest or weed control at 40 µg/mL in data set [2] of 100%. In data set [3], this compound had a pest or weed control at 40 µg/mL of 97%. The same compound displayed a pest or weed control at 40 µg/mL in data set [4] of 100%. The pest or weed control at 40 µg/mL in data set [5] came out at 100%.

`Cc1ccc(Nc2c(-c3ccc(F)cc3Cl)c(C)nn2C)c(Cl)c1` [Compound 2, 4-(2-chloro-4-fluorophenyl)-N-(2-chloro-4-methylphenyl)-1,3-dimethyl-1H-pyrazol-5-amine]: the pest or weed control at 40 µg/mL worked out at 100% in data set [1]; 97% in data set [2]; 0% in data set [3]; 100% in data set [4]; 95% in data set [5].

For the compound `Cc1cc(Cl)c(Nc2c(-c3ccc(F)cc3Br)c(C)nn2C)c(Cl)c1` [Compound 15, 4-(2-bromo-4-fluorophenyl)-N-(2,6-dichloro-4-methylphenyl)-1,3-dimethyl-1H-pyrazol-5-amine], the melting point lay in the range of 191 to 192 °C. Moreover, in data set [1], the pest or weed control at 40 µg/mL was 100%. The compound also registered a pest or weed control at 40 µg/mL in data set [2] of 99%. For the same compound, the pest or weed control at 40 µg/mL in data set [3] turned out to be 0%. This compound yielded a pest or weed control at 40 µg/mL in data set [4] of 100%. Besides, the pest or weed control at 40 µg/mL in data set [5] is 100%.

With `Cc1ccc(Nc2c(-c3ccc(F)cc3Br)c(C)nn2C)c(Cl)c1` [Compound 4, 4-(2-bromo-4-fluorophenyl)-N-(2-chloro-4-methylphenyl)-1,3-dimethyl-1H-pyrazol-5-amine], the pest or weed control at 40 µg/mL was determined as 100% in data set [1]; 97% in data set [2]; 0% in data set [3]; 100% in data set [4]; 97% in data set [5].

These data come from patent publication US9464056B2, “Fungicidal 4-methylanilino pyrazoles” (E. I. DU PONT DE NEMOURS AND COMPANY, priority 2012, dated 2016).
